Reference: ChEMBL document CHEMBL1130432, “Neuritogenic effect of epolactaene derivatives on human neuroblastoma cells which lack high-affinity nerve growth factor receptors” (1997)

Key:
Type in all cases: functional, Homo sapiens
SH-SY5Y [1] = assay: Ability to induce neurite outgrowth in SH-SY5Y cells measured as percentage of neurite bearing cells/total cells at 118.8 uM; Range is 5-20%
SH-SY5Y [2] = assay: Ability to induce neurite outgrowth in SH-SY5Y cells measured as percentage of neurite bearing cells/total cells at 29.5 uM; Range is 5-20%
SH-SY5Y [3] = assay: Ability to induce neurite outgrowth in SH-SY5Y cells measured as percentage of neurite bearing cells/total cells at 98.8 uM; Range is 5-20%
SH-SY5Y [4] = assay: Ability to induce neurite outgrowth in SH-SY5Y cells measured as percentage of neurite bearing cells/total cells at 25.4 uM; Range is 5-20%
SH-SY5Y [5] = assay: Ability to induce neurite outgrowth in SH-SY5Y cells measured as percentage of neurite bearing cells/total cells at 17.8 uM; Range is 20-40%
SH-SY5Y [6] = assay: Ability to induce neurite outgrowth in SH-SY5Y cells measured as percentage of neurite bearing cells/total cells at 59.4 uM

CCCCCCCCCCCCCCCCCCN1C(=O)C(C(C)=O)=C(C)C1(C)O (stereo unspecified)
Neurite bearing cells/total cells (SH-SY5Y [1]): 20%

CCCCCCCCCCCCN1C(=O)C(C(C)=O)=C(C)C1(C)O (stereo unspecified)
Neurite bearing cells/total cells (SH-SY5Y [2]): 20%

CCCCCCOC1(C)NC(=O)C(C(C)=O)=C1C (stereo unspecified)
Neurite bearing cells/total cells (SH-SY5Y [3]): 20%

CCCCCCCCCCCCCCCCN1C(=O)C(C(C)=O)=C(C)C1(C)O (stereo unspecified)
Neurite bearing cells/total cells (SH-SY5Y [4]): 20%

CCCCCCCCN1C(=O)C(C(C)=O)=C(C)C1(C)O (stereo unspecified)
Neurite bearing cells/total cells (SH-SY5Y [5]): 40%

CCCCCCCCCCCCCCCCCCOC1(C)NC(=O)C(C(C)=O)=C1C (stereo unspecified)
Neurite bearing cells/total cells (SH-SY5Y [6]): >40%
